# From patent publication US9464301B2, “Increased isoprene production using the archaeal lower mevalonate pathway” (Danisco US Inc., priority 2008, dated 2016)
# Entries after “also recorded” stand apart in the source; their conditions may differ.
# B1: yeast mevalonate kinase: mevalonate kinase from Saccharomyces cerevisiae, expressed in E. coli and purified to >95% (protein, UniProt P07277 1-443, looked up)
# Mevalonate kinase: MSLPFLTSAPGKVIIFGEHSAVYNKPAVAASVSALRTYLLISESSAPDTIELDFPDISFNHKWSINDFNAITEDQVNSQKLAKAQQATDGLSQELVSLLDPLLAQLSESFHYHAAFCFLYMFVCLCPHAKNIKFSLKSTLPIGAGLGSSASISVSLALAMAYLGGLIGSNDLEKLSENDKHIVNQWAFIGEKCIHGTPSGIDNAVATYGNALLFEKDSHNGTINTNNFKFLDDFPAIPMILTYTRIPRSTKDLVARVRVLVTEKFPEVMKPILDAMGECALQGLEIMTKLSKCKGTDDEAVETNNELYEQLLELIRINHGLLVSIGVSHPGLELIKNLSDDLRIGSTKLTGAGGGGCSLTLLRRDITQEQIDSFKKKLQDDFSYETFETDLGGTGCCLLSAKNLNKDLKIKSLVFQLFENKTTTKQQIDDLLLPGNTNLPWTS
# Tests used:
# [1] = target: human MVK polypeptide (Homo sapiens, UniProt Q03426); conditions: reported; cited from earlier work
# [2] = target: T1, MVK from the archaeon Methanococcus jannaschii (Methanocaldococcus jannaschii, UniProt Q58487); conditions: Huang et al. 1999; cited from earlier work
# T1 sequence (Q58487 1-312): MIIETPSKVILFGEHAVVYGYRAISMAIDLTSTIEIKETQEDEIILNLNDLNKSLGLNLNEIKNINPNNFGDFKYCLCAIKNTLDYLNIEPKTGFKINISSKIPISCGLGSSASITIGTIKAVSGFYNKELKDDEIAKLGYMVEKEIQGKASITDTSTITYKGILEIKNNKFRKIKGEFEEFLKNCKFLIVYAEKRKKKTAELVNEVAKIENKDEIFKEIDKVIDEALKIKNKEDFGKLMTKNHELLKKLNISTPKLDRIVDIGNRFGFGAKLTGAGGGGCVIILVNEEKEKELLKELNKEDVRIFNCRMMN
# [3] = target: T2, yeast mevalonate kinase (Saccharomyces cerevisiae, UniProt P07277); format: biochemical; conditions: for KMapp of yeast mevalonate kinase: other substrate saturating at 5 mM, 30° C.
# T2 construct: 10xHis tag with factor Xa site (pET-16b leader); made in house; host or cells: E. coli BL21(DE3) pLysS
# T2 sequence (P07277 1-443): B1 Mevalonate kinase
# [4] = test system: S. pneumoniae MVK; assay: Inhibition of MVK by diphosphomevalonate, two enzyme system (MVK plus PMK); format: biochemical, Streptococcus pneumoniae; conditions: 1 μM MVK, 1 μM PMK, diphosphomevalonate formed in situ
# Description: (§1) This experiment investigates the inhibitory effect of diphosphomevalonate and […] (IP) on MVK activity using MVK enzymes from S. pneumoniae, yeast, and M. mazei, respectively. […] All reactions were performed in 96-well plates and were monitored by absorbance at 386 nm on a Molecular Devices Spectramax 190 UV-Vis 96-well spectrophotometer. […] All chemical reagents were purchased from Sigma unless otherwise specified. Yeast and M. mazei MVK were obtained as described above and S. pneumoniae MVK and yeast phosphomevalonate kinase (PMK) were obtained as previously described (Andreassi et al., Biochemistry, 43:16461-66, 2004) from pDW02 in pET200D MVK (FIG. 142).
# [5] = target: T3, yeast MVK (Saccharomyces cerevisiae, UniProt P07277); assay: as above; format: biochemical; conditions: 1 μM MVK, 1 μM PMK, diphosphomevalonate formed in situ
# T3 construct: 10xHis tag with factor Xa site (pET-16b leader); made in house; host or cells: E. coli BL21(DE3) pLysS
# T3 sequence (P07277 1-443): B1 Mevalonate kinase
# Description: as §1
# [6] = test system: M. mazei MVK; assay: Inhibition of MVK by diphosphomevalonate and IP, two enzyme system; format: biochemical, Methanosarcina mazei; conditions: 1 μM MVK; for Inhibition of M. mazei MVK by isopentenyl monophosphate: 100 μM
# Description: This experiment investigates the inhibitory effect of diphosphomevalonate and […] (IP) on MVK activity using MVK enzymes from S. pneumoniae, yeast, and M. mazei, respectively. […] All chemical reagents were purchased from Sigma unless otherwise specified.
# [7] = about 1 atmosphere and about 60° F.; cited from earlier work
# [8] = Flammability modeling (CAFT) and testing of isoprene; format: physicochemical
# Description: Thus, computer modeling and experimental testing were used to determine the flammability limits of isoprene (such as isoprene in the presence of O2, N2, CO2, or any combination of two or more of the foregoing gases) in order to ensure process safety. The flammability envelope is characterized by the lower flammability limit (LFL), the upper flammability limit (UFL), the limiting oxygen concentration (LOC), and the limiting temperature. For a system to be flammable, a minimum amount of fuel (such as isoprene) must be in the presence of a minimum amount of oxidant, typically oxygen. The LFL is the minimum amount of isoprene that must be present to sustain burning, while the UFL is the maximum amount of isoprene that can be present. Above this limit, the mixture is fuel rich and the fraction of oxygen is too low to have a flammable mixture. The LOC indicates the minimum fraction of oxygen that must also be present to have a flammable mixture. […]
# Calculated adiabatic flame temperatures (CAFT) along with a selected limit flame temperature for combustion propagation were used to determine the flammability envelope for isoprene. […]
# The igniter was comprised of a 1.5 ohm nicrome coil and an AC voltage source on a timer circuit. Using an oscilloscope, it was determined that 34.4 VAC were delivered to the igniter for 3.2 seconds. […]
# human MVK polypeptide, sequence (Q03426 whole entry): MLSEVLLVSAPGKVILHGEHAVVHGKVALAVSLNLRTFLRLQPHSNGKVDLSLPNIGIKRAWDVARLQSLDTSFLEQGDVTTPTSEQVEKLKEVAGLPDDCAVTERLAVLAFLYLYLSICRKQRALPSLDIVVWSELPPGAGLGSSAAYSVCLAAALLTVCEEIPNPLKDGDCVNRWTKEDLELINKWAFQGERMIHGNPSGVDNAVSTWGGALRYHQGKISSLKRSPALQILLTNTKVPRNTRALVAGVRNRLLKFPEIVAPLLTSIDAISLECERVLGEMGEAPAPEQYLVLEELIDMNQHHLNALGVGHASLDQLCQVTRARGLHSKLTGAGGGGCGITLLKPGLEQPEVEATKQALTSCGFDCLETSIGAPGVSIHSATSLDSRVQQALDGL
molecule,measurement,setting,value
"CC(C)=CCC/C(C)=C/COP(=O)(O)OP(=O)(O)O [GPP, geranyl diphosphate]",Ki for human MVK polypeptide,[1],nanomolar range
same,Feedback inhibition of M. jannaschii MVK,[2],feedback inhibited
"CC(C)=CCC/C(C)=C/CC/C(C)=C/CC/C(C)=C/COP(=O)(O)OP(=O)(O)O [GGPP, geranylgeranyl diphosphate]",Ki for human MVK polypeptide,[1],nanomolar range
CC(O)(CCO)CC(=O)O (stereo not shown) [mevalonate],KMapp of yeast mevalonate kinase,[3],131 ± 8 µM
"Nc1ncnc2c1ncn2[C@@H]1O[C@H](COP(=O)(O)OP(=O)(O)OP(=O)(O)O)[C@@H](O)[C@H]1O [ATP, adenosine triphosphate]",KMapp of yeast mevalonate kinase,[3],714 ± 49 µM
C[C@@](O)(CCOP(=O)(O)OP(=O)(O)O)CC(=O)O [diphosphomevalonate],Inhibition of S. pneumoniae MVK by diphosphomevalonate,[4],inhibited
same,Inhibition of yeast MVK by diphosphomevalonate,[5],not inhibited; also recorded: Neither yeast MVK nor M. mazei MVK was inhibited
same,Inhibition of M. mazei MVK by diphosphomevalonate,"[6]; PMK, diphosphomevalonate formed in situ",proceed to completion; also recorded: Neither yeast MVK nor M. mazei MVK was inhibited
CCO [ethanol],LFL,[7],about 3.3 vol %
same,LOC,[7],about 8.7 vol %
"CC(C)=CCC/C(C)=C/CC/C(C)=C/CO[P@@](=O)(O)OP(=O)(O)O (stereo in doubt) [FPP, farnesyl diphosphate]",Ki for human MVK polypeptide,[1],nanomolar range
"C=C(C)CCOP(=O)(O)O [IP, isopentenyl monophosphate]",Inhibition of M. mazei MVK by isopentenyl monophosphate,[6],not inhibited
"C=CC(=C)C [isoprene, 2-methyl-1,3-butadiene]",limiting oxygen concentration (LOC),"[8]; isoprene, O2, N2, and CO2 mixture at 40° C. and 1 atmosphere",9.5 vol %
same,limiting temperature,[8]; lowest temperature at which combustion can propagate,about −54 °C
"C=C(C)CCOP(=O)(O)OP(=O)(O)O [IPP, isopentenyl diphosphate]",Inhibition of M. mazei MVK by isopentenyl monophosphate,[6],not inhibited
B1,turnover number (kcat),[3]; yeast mevalonate kinase,38 ± 5 s⁻¹
